{"source": "patent US20240091292A1", "about": "“METHODS FOR TREATMENT OF HUMAN CANCERS USING CANNABIS COMPOSITIONS” (Apollon Formularies PLC, priority 2021, published 2024)", "format_in_all_cases": "cell-based", "key": {"[1]": {"system": "PC-3", "assay": "3D Cell Proliferation Screen, PC-3", "conditions": "Homo sapiens, 120 h, PC-3 prostate spheroids, 5 days, positive control", "experimental": "(§1) Experimental Methods: 3D Cell Proliferation Assay\n(§2) Cells were seeded at 1000 cells/well in media in 384-well Corning® Spheroid microplates. The microplates were incubated at 37 C in 5% CO2 incubator to allow for spheroid formation.\n(§3) Aliquots of each sample were vortexed and centrifuged at 3,000 rpm (800 g) for 5 minutes at room temperature. Supernatants (500-fold stocks) were stored under sterile conditions at 4 C.\n(§4) On the day of the assay, a 9-point dose-response of each 500-fold stock was prepared and added to the spheroid plates to provide final assay concentrations ranging from 1e-04 to 1-fold, in 0.2% DMSO. Final assay conditions for each sample are shown on Table 1.\n(§5) Assay plates were incubated at 37 C in an atmosphere containing 5% CO2 for 5 days. […] Cell viability was determined at 5 days post-compound addition. Briefly, 3D-CellTiter Glow™ reagent (Promega) was added to assay plates per the manufacturer's recommendations. Plates were shaken until spheroids were lysed and luminescence was read at room temperature.\n(§6) Cell proliferation end point was analyzed as Percent of Control (POC) using the following formula: […]\n(§7) EC50, IC50 and GI50 values were calculated using nonlinear regression to fit data to a sigmoidal 4-point, 4-parameter log-logistic dose response model: […]"}, "[2]": {"system": "NCI-H460", "assay": "3D Cell Proliferation Screen, NCI-H460", "conditions": "Homo sapiens, 120 h; NCI-H460 lung spheroids, 5 days; relative to T0; positive control", "experimental": "as §1, §2, §3, §4, §5, §6, §7"}, "[3]": {"system": "HT-29", "assay": "3D Cell Proliferation Screen, HT-29", "conditions": "Homo sapiens, 120 h, HT-29 colon spheroids, 5 days, positive control", "experimental": "as §1, §2, §3, §4, §5, §6\n(§8) A relative cell count EC50 is the concentration of the test compound that produces a response half-way between the maximum and baseline. Relative cell count IC50 is the concentration of the test compound that produces 50% of the cell proliferation inhibitory response or 50% cytotoxicity level. GI50 is the concentration of the test compound that produces 50% reduction in proliferation of cancer cells relative to T0. The output of each biomarker is fold-increase over vehicle control background normalized to the relative cell count in each well.\n(§9) EC50, IC50 and GI50 values were calculated using nonlinear regression to fit data to a sigmoidal 4-point, 4-parameter log-logistic dose response model:\n(§10) Curve-fitting and EC50 calculations were performed using the R statistical software package with R's drc library."}, "[4]": {"system": "T24", "assay": "3D Cell Proliferation Screen, T24", "conditions": "Homo sapiens, T-24, 120 h, T24 bladder spheroids, 5 days, positive control", "experimental": "as §1, §2, §3, §4, §5, §6, §8, §9, §10"}, "[5]": {"system": "22Rv-1", "assay": "3D Cell Proliferation Screen, 22Rv-1", "conditions": "Homo sapiens, 22Rv1, 120 h; 22Rv-1 prostate spheroids, 5 days; relative to T0; positive control", "experimental": "as §1, §2, §3, §4, §5, §6, §7"}, "[6]": {"system": "BT-474", "assay": "3D Cell Proliferation Screen, BT-474", "conditions": "Homo sapiens, 120 h; BT-474 breast spheroids, 5 days; relative to T0; positive control", "experimental": "as §1, §2, §3, §4, §5, §6, §7"}, "[7]": {"system": "A-549", "assay": "3D Cell Proliferation Screen, A-549", "conditions": "Homo sapiens, A549, 120 h, A-549 lung spheroids, 5 days, positive control", "experimental": "as §1, §2, §3, §4, §5, §6, §7"}, "[8]": {"system": "T-47D", "assay": "3D Cell Proliferation Screen, T-47D", "conditions": "Homo sapiens, T47D, 120 h, T-47D breast spheroids, 5 days, positive control", "experimental": "as §1, §2, §3, §4, §5, §6, §8, §9, §10"}}}
{"compound": "CN[C@@H]1C[C@H]2O[C@@](C)([C@@H]1OC)n1c3ccccc3c3c4c(c5c6ccccc6n2c5c31)C(=O)NC4", "note": "[Staurosporine]", "values": [{"measurement": "IC50", "setting": "[1]", "result": 4, "unit": "nM"}, {"measurement": "GI50", "setting": "[1]; relative to T0", "result": 1, "unit": "nM"}, {"measurement": "GI50", "setting": "[2]", "result": 17, "unit": "nM"}, {"measurement": "EC50", "setting": "[3]", "result": 9, "unit": "nM"}, {"measurement": "IC50", "setting": "[3]", "result": 9, "unit": "nM"}, {"measurement": "GI50", "setting": "[3]; relative to T0", "result": 7, "unit": "nM"}, {"measurement": "EC50", "setting": "[4]", "result": 13, "unit": "nM"}, {"measurement": "IC50", "setting": "[4]", "result": 13, "unit": "nM"}, {"measurement": "GI50", "setting": "[4]; relative to T0", "result": 1, "unit": "nM"}, {"measurement": "GI50", "setting": "[5]", "result": 13, "unit": "nM"}, {"measurement": "GI50", "setting": "[6]", "result": 3, "unit": "nM"}, {"measurement": "EC50", "setting": "[7]", "result": 17, "unit": "nM"}, {"measurement": "GI50", "setting": "[7]; relative to T0", "result": 11, "unit": "nM"}, {"measurement": "EC50", "setting": "[8]", "result": 101, "unit": "nM"}, {"measurement": "IC50", "setting": "[8]", "result": 101, "unit": "nM"}, {"measurement": "GI50", "setting": "[8]; relative to T0", "result": 38, "unit": "nM"}]}
